According to patent US20230124862A1, “BISMUTH THIOL COMPOUNDS AND COMPOSITIONS AND METHODS OF TREATING MICROBIAL CO-INFECTIONS” (Microbion Corporation, priority 2020, published 2023):
≈ marks a conversion by molar mass, not a printed value. Read-outs that look alike come from different tables or passages of the source.

Columns and labels:
[1] = system: Haemophilus influenzae; test: Broth microdilution MIC, Haemophilus influenzae clinical isolates; assay type: cell-based
[2] = system: Haemophilus influenzae; details: H. influenzae MMX 1224 (ATCC 49247); in µg/mL; cited from earlier work
[3] = system: Anaerobes (Bacteroides fragilis, Clostridium difficile); test: Agar dilution MIC (Example 11); assay type: cell-based; details: read-out: MIC
Experimental: The susceptibility of anaerobic bacteria was determined by agar dilution using Brucella Agar (BD/BBL; Lot No. 5237692) supplemented with 5 μg/mL hemin (Sigma, St. Louis, Mo.; Lot No. 108K1088), 1 μg/mL Vitamin K1 and 5% (v/v) laked sheep blood (Cleveland Scientific, Bath, Ohio; Lot No. 322799).
Agar Dilution MIC Testing (Anaerobic Bacteria and Gonococci): MIC values for anaerobic bacteria were determined using a reference agar dilution method as described by CLSI (6). Organisms were grown at 35° C. in the Bactron II Anaerobic Chamber (Shel Lab, Cornelius, Oreg.) for approximately 48 hr prior to the assay. Drug dilutions and drug-supplemented agar plates were prepared manually per CLSI (6). The plates were allowed to stand at room temperature for 1 hr to allow the agar surface to dry and pre-reduced for approximately 1 hr in the anaerobe chamber prior to inoculation. Each isolate was suspended to the equivalent of a 0.5 McFarland standard in Brucella broth using a turbidity meter (Dade Behring MicroScan, West Sacramento, Calif.). Each bacterial cell suspension was then diluted 1:10 in Brucella broth and transferred to wells in a stainless steel replicator block which was used to inoculate the test plates. The prongs on the replicator deliver approximately 1-2 μl of inoculum to an agar surface. The resulting inoculum spots contained approximately 1×10^5 CFU/spot. After the inoculum dried, the inoculated drug-supplemented agar plates and no drug growth control plates were incubated at 35° C. for 42-48 hr in the anaerobe chamber. The MIC was read per CLSI guidelines (6).

[4] = system: Anaerobes (Bacteroides fragilis, Clostridium difficile); details: C. difficile MMX 4381 (ATCC 700057); cited from earlier work

`CC1(C)S[C@@H]2[C@H](NC(=O)[C@H](N)c3ccccc3)C(=O)N2[C@H]1C(=O)O` [AMP] showed an MIC ([1]; H. influenzae MMX 0797, BLNAR) of 4 µg/mL (≈ 11.4 µM), an MIC ([1]; H. influenzae MMX 1224 (ATCC 49247)) of 2 µg/mL (≈ 5.72 µM) and an MIC ([1]; H. influenzae MMX 1302) of 0.25 µg/mL (≈ 0.715 µM). The MIC ([1]; H. influenzae MMX 1304) was 0.25 µg/mL (≈ 0.715 µM), the MIC ([1]; H. influenzae MMX 1740) was 4 µg/mL (≈ 11.4 µM) and the MIC ([1]; H. influenzae MMX 1741) was 4 µg/mL (≈ 11.4 µM). It also gave an MIC ([1]; H. influenzae MMX 2795, BLNAR) of 4 µg/mL (≈ 11.4 µM), an MIC ([1]; H. influenzae MMX 2796, BLNAR) of 2 µg/mL (≈ 5.72 µM) and an MIC ([1]; H. influenzae MMX 2798, BLNAR) of 4 µg/mL (≈ 11.4 µM). For the same compound, the MIC ([1]; H. influenzae MMX 2799, BLNAR) was 4 µg/mL (≈ 11.4 µM), the MIC ([1]; H. influenzae MMX 5458) was 0.12 µg/mL (≈ 0.343 µM) and the MIC ([1]; H. influenzae MMX 5461) was 0.5 µg/mL (≈ 1.43 µM). It also gave an MIC ([1]; H. influenzae MMX 5469) of 4 µg/mL (≈ 11.4 µM), an MIC ([1]; H. influenzae MMX 5494) of 0.12 µg/mL (≈ 0.343 µM) and an MIC ([1]; H. influenzae MMX 5495) of 0.25 µg/mL (≈ 0.715 µM). The MIC ([1]; H. influenzae MMX 5499) was 0.25 µg/mL (≈ 0.715 µM) and the “CLSI Quality Control Range (MIC)” value [2] was 2-8.

Compound `CCc1c(Cl)c(O)c(Cl)c(O)c1C(=O)O[C@H]1[C@H](O)[C@H](OC)[C@H](OC/C2=C\C=C\C[C@H](O)/C(C)=C/[C@H](CC)[C@@H](O[C@@H]3OC(C)(C)[C@@H](OC(=O)C(C)C)[C@H](O)[C@@H]3O)/C(C)=C/C(C)=C/C[C@@H]([C@@H](C)O)OC2=O)O[C@@H]1C` [Fidaxomicin] has an MIC ([3]; Bacteroides fragilis, ATCC25285, B. fragilis MMX 123 (ATCC 25285), QC) greater than 64 µg/mL, an MIC ([3]; C. difficile MMX 4381 (ATCC 700057), QC, CC^1) of 0.25 µg/mL (≈ 0.236 µM) and an MIC ([3]; C. difficile MMX 5680 (NCTC 13336), ribotype 027, CC^1 MET^R) of 4 µg/mL (≈ 3.78 µM). The MIC ([3]; C. difficile MMX 5681 (NCTC 13307), ribotype 012, CC^R) was 0.5 µg/mL (≈ 0.473 µM), the MIC ([3]; C. difficile MMX 8272, ribotype 255, CC^1) was 0.5 µg/mL (≈ 0.473 µM) and the MIC ([3]; C. difficile MMX 8279, ribotype 005, CC^R) was 0.5 µg/mL (≈ 0.473 µM). The MIC ([3]; C. difficile MMX 8281, ribotype 010, CC^R) was 0.5 µg/mL (≈ 0.473 µM) and the “CLSI QC range of MIC” value [4] was “(0.06-0.25) μg/mL”.
